Measurements: PMC10459693, “Toward Stability Enhancement of NTS1R-Targeted Radioligands: Structural Interventions on [^99mTc]Tc-DT1” (Pharmaceutics, 2023)
Like-named read-outs stand apart in the source and are kept apart here. Peptide text beside a SMILES is read from it. * marks the point of attachment. Palmitoyl = CCCCCCCCCCCCCCCC(=O)*; X1 = NCCNCC(CNCCN)C(=O)*

Tests used:
[1] = tested on: AsPC-1 cells; assay: NTS1R-specific uptake and internalization in AsPC-1 cells; format: cell-based, human
Method: The NTS1R-specific internalization of [^99mTc]Tc-DT1/7/8/9 radioligands was compared in AsPC-1 cells. The cells were seeded in 6-well plates (1 × 10^6 cells per well) and left to grow overnight. The following day, the medium was aspirated, and the cells were washed twice with internalization medium (2 mL IM: RPMI supplemented with 1% v/v FBS) on ice. They were placed on the bench, and warm IM (1200 μL 37 °C) was added per well, followed by radioligand solution (150 μL, 250 fmol) and either IM (150 μL total: T; upper wells) or NT (10^−5 M in IM, non-specific: NS; lower wells). The plates were placed in the Incubator-Orbital Shaker at 37 °C for 1 h, and the incubation was interrupted by placing the plates on ice. The supernatant was collected in RIA tubes, and the cells were washed with 1 mL phosphate-buffered saline (PBS, pH 7.4, 4 °C) containing 0.5% w/v BSA, and the washing was also collected in the same RIA tube. Cells were treated twice for 5 min with glycine buffer (600 μL, 50 mM glycine, 0.1 M NaCl, pH 2.8), and supernatants were collected (membrane bound fraction, MB). The cells were washed again with 1 mL ice-cold PBS-BSA buffer, which was discarded. Finally, cells were lysed (2 × 600 μL 1 M NaOH), and the lysates were collected (internalized fraction, IF). Sample radioactivity was measured on the γ-counter. Specific values for MB and IF were acquired by subtracting NS values from T ones. Results are expressed as mean percentage of added radioactivity ± sd, n = 3. In addition, time-dependent internalization in AsPC-1 cells was directly compared for [^99mTc]Tc-DT1/9 by incubation at 37 °C for 15 min, 30 min, 1 h, and 2 h, following the above-described protocol for each time point.

[2] = Biodistribution in SCID mice bearing AsPC-1 xenografts; format: in vivo; details: male, mouse, iv, total radioactivity; for tissue uptake at 4 h: 4 h pi; for tissue uptake at 24 h: 24 h pi
Method: Twenty male severe combined immunodeficiency (SCID) mice (23.1 ± 1.6 g body weight, six weeks of age on arrival day; NCSR “Demokritos” Animal House, Athens, Greece) were used in the biodistribution experiments. Animals were subcutaneously inoculated in their right flanks with a sterile suspension of freshly harvested AsPC-1 cells (150 μL, 5 × 10^6 cells/animal), and 3–4 weeks later, they developed well-palpable tumors at the implantation sites. During this period, mice were housed in suitable facilities under sterile conditions with 12 h day/night cycles and were provided with sterilized chow food and drinking water ad libitum. At the date of the experiment, animals were randomly divided in groups of four and received through the tail vein a bolus of [^99mTc]Tc-DT9 (100 μL, 3 pmol in vehicle: PBS/EtOH 9/1 v/v with the addition of 0.1% Tween-80) plus vehicle (100 μL; controls at 4 and 24 h pi) or plus Lis (100 μg in 100 μL vehicle); the latter groups had additionally received per os 30 min in advance Entresto® (200 μL, 12 mg; Entresto®+Lis groups at 4 and 24 h pi). A further 4 h group of animals was treated with Entresto®, and 30 min later, mice were co-injected with excess NT and Lis (100 μg NT and 100 μg Lis in 100 μL vehicle—NTS1R block). At the predetermined time intervals, mice were euthanized and weighted, and their blood, organs, and tissue samples of choice as well as the implanted tumors were collected and weighted. Sample radioactivity was measured on the γ-counter together with proper standards of the injected dose. Results were calculated as percentage of injected activity per gram tissue (%IA/g) and provided as mean %IA/g values ± sd. For comparisons, a two-way ANOVA with Tukey’s post hoc analysis was adopted (PRISM^TM 6.0 GraphPad Software, San Diego, CA, USA). p-values < 0.05 were considered statistically significant.

[3] = AsPC-1 tumor, 3 pmol, Controls, read-out: uptake in AsPC-1 Tumor
[4] = AsPC-1 tumor, Entresto+Lis, read-out: uptake in AsPC-1 Tumor
[5] = blood, 3 pmol, Controls, read-out: uptake in Blood
[6] = blood, Entresto+Lis, read-out: uptake in Blood
[7] = heart, 3 pmol, Controls, read-out: uptake in Heart
[8] = heart, Entresto+Lis, read-out: uptake in Heart
[9] = intestines, 3 pmol, Controls, read-out: uptake in Intestines
[10] = intestines, Entresto+Lis, read-out: uptake in Intestines
[11] = kidneys, 3 pmol, Controls, read-out: uptake in Kidneys
[12] = kidneys, Entresto+Lis, read-out: uptake in Kidneys
[13] = liver, 3 pmol, Controls, read-out: uptake in Liver
[14] = liver, Entresto+Lis, read-out: uptake in Liver
[15] = lungs, 3 pmol, Controls, read-out: uptake in Lungs
[16] = lungs, Entresto+Lis, read-out: uptake in Lungs
[17] = muscle, 3 pmol, Controls, read-out: uptake in Muscle
[18] = muscle, Entresto+Lis, read-out: uptake in Muscle
[19] = pancreas, 3 pmol, Controls, read-out: uptake in Pancreas
[20] = pancreas, Entresto+Lis, read-out: uptake in Pancreas
[21] = spleen, 3 pmol, Controls, read-out: uptake in Spleen
[22] = spleen, Entresto+Lis, read-out: uptake in Spleen
[23] = stomach, 3 pmol, Controls, read-out: uptake in Stomach
[24] = stomach, Entresto+Lis, read-out: uptake in Stomach

CCCCCCCCCCCCCCCC(=O)NCCCC[C@H](NC(=O)C(CNCCN)CNCCN)C(=O)N[C@@H](CCCNC(=N)N)C(=O)N[C@@H](CCCNC(=N)N)C(=O)N1CCC[C@H]1C(=O)N[C@@H](Cc1ccc(O)cc1)C(=O)N[C@H](C(=O)N[C@@H](CC(C)C)C(=O)O)[C@@H](C)CC [[^99mTc]Tc-DT9, metal not drawn] (X1-K(Palmitoyl)RRPYIL-OH)
internalization, specific of added radioactivity ([1]; 1 h at 37 °C): 16.53 ± 1.12% | specific cell uptake of added radioactivity (internalized + membrane bound) ([1]; 1 h at 37 °C): 16.76 ± 1.16% | specific uptake of added radioactivity (time-dependent internalization) ([1]; 2 h at 37 °C): 21.5 ± 1.0% | tissue uptake at 4 h [2, 3]: 6.15 ± 0.92 %ID/g | tissue uptake at 24 h [2, 3]: 3.32 ± 0.35 %ID/g | tissue uptake at 4 h ([2]; AsPC-1 tumor, Block (Entresto+Lis plus excess NT), read-out: uptake in AsPC-1 Tumor): 3.68 ± 0.92 %ID/g | tissue uptake at 4 h [2, 4]: 5.24 ± 0.27 %ID/g | tissue uptake at 24 h [2, 4]: 2.84 ± 0.43 %ID/g | tissue uptake at 4 h [2, 5]: 4.63 ± 0.55 %ID/g | tissue uptake at 4 h ([2]; blood, 3 pmol, all animal groups, read-out: radioactivity levels in the blood): > 4 %ID/g | tissue uptake at 24 h [2, 5]: 0.68 ± 0.18 %ID/g | tissue uptake at 4 h ([2]; blood, Block (Entresto+Lis plus excess NT), read-out: uptake in Blood): 4.25 ± 0.37 %ID/g | tissue uptake at 4 h [2, 6]: 4.32 ± 0.42 %ID/g | tissue uptake at 24 h [2, 6]: 0.7 ± 0.06 %ID/g | tissue uptake at 4 h [2, 7]: 3.12 ± 0.43 %ID/g | tissue uptake at 24 h [2, 7]: 0.64 ± 0.11 %ID/g | tissue uptake at 4 h ([2]; heart, Block (Entresto+Lis plus excess NT), read-out: uptake in Heart): 2.79 ± 0.47 %ID/g | tissue uptake at 4 h [2, 8]: 2.85 ± 2.48 %ID/g | tissue uptake at 24 h [2, 8]: 0.71 ± 0.06 %ID/g | tissue uptake at 4 h [2, 9]: 13 ± 4.6 %ID/g | tissue uptake at 24 h [2, 9]: 4.26 ± 0.61 %ID/g | tissue uptake at 4 h ([2]; intestines, Block (Entresto+Lis plus excess NT), read-out: uptake in Intestines): 6.27 ± 0.72 %ID/g | tissue uptake at 4 h [2, 10]: 7.9 ± 0.88 %ID/g | tissue uptake at 24 h [2, 10]: 5.37 ± 1.61 %ID/g | tissue uptake at 4 h [2, 11]: 9.53 ± 1.18 %ID/g | tissue uptake at 24 h [2, 11]: 3.81 ± 0.54 %ID/g | tissue uptake at 4 h ([2]; kidneys, Block (Entresto+Lis plus excess NT), read-out: uptake in Kidneys): 8.56 ± 0.87 %ID/g | tissue uptake at 4 h [2, 12]: 9.15 ± 0.62 %ID/g | tissue uptake at 24 h [2, 12]: 4.63 ± 0.15 %ID/g | tissue uptake at 4 h [2, 13]: 29.6 ± 3.77 %ID/g | tissue uptake at 24 h [2, 13]: 12.9 ± 1.66 %ID/g | tissue uptake at 4 h ([2]; liver, Block (Entresto+Lis plus excess NT), read-out: uptake in Liver): 30.9 ± 4.25 %ID/g | tissue uptake at 4 h [2, 14]: 28.4 ± 2.48 %ID/g | tissue uptake at 24 h [2, 14]: 17 ± 0.94 %ID/g | tissue uptake at 4 h [2, 15]: 8.8 ± 1.42 %ID/g | tissue uptake at 24 h [2, 15]: 3.42 ± 0.67 %ID/g | tissue uptake at 4 h ([2]; lungs, Block (Entresto+Lis plus excess NT), read-out: uptake in Lungs): 8.46 ± 1.26 %ID/g | tissue uptake at 4 h [2, 16]: 7.61 ± 0.64 %ID/g | tissue uptake at 24 h [2, 16]: 3.62 ± 0.94 %ID/g | tissue uptake at 4 h [2, 17]: 0.93 ± 0.13 %ID/g | tissue uptake at 24 h [2, 17]: 0.22 ± 0.02 %ID/g | tissue uptake at 4 h ([2]; muscle, Block (Entresto+Lis plus excess NT), read-out: uptake in Muscle): 0.82 ± 0.11 %ID/g | tissue uptake at 4 h [2, 18]: 0.81 ± 0.04 %ID/g | tissue uptake at 24 h [2, 18]: 0.24 ± 0.01 %ID/g | tissue uptake at 4 h [2, 19]: 2.1 ± 0.3 %ID/g | tissue uptake at 24 h [2, 19]: 0.75 ± 0.17 %ID/g | tissue uptake at 4 h ([2]; pancreas, Block (Entresto+Lis plus excess NT), read-out: uptake in Pancreas): 1.84 ± 0.41 %ID/g | tissue uptake at 4 h [2, 20]: 1.85 ± 0.18 %ID/g | tissue uptake at 24 h [2, 20]: 0.8 ± 0.07 %ID/g | tissue uptake at 4 h [2, 21]: 6.82 ± 1.11 %ID/g | tissue uptake at 24 h [2, 21]: 3.42 ± 0.54 %ID/g | tissue uptake at 4 h ([2]; spleen, Block (Entresto+Lis plus excess NT), read-out: uptake in Spleen): 6.18 ± 1.37 %ID/g | tissue uptake at 4 h [2, 22]: 5.47 ± 0.47 %ID/g | tissue uptake at 24 h [2, 22]: 4.47 ± 0.83 %ID/g | tissue uptake at 4 h [2, 23]: 3.09 ± 1.06 %ID/g | tissue uptake at 24 h [2, 23]: 1.73 ± 0.5 %ID/g | tissue uptake at 4 h ([2]; stomach, Block (Entresto+Lis plus excess NT), read-out: uptake in Stomach): 2.06 ± 0.47 %ID/g | tissue uptake at 4 h [2, 24]: 2.27 ± 0.38 %ID/g | tissue uptake at 24 h [2, 24]: 1.56 ± 0.31 %ID/g
